Measurements as given in publication PMC8766756, “Insights on Cancer Cell Inhibition, Subcellular Activities, and Kinase Profile of Phenylacetamides Pending 1H-Imidazol-5-One Variants” (Frontiers in Pharmacology, 2022).
Like-named read-outs stand apart in the source and are kept apart here.

Assays:
[1] = test system: HCT116 colon cancer cell line; experiment: MTT antiproliferative assay; format: cell-based; settings: Homo sapiens, HCT-116
Procedure: The compounds were screened for their anticancer activities against a variety of cancer cell lines. The cytotoxic effect of the compounds was evaluated using the sulforhodamine B (SRB) cytotoxicity assay for breast cancer line (MCF7) and prostate cancer cell line (PC3) ([Vichai and Kirtikara, 2006]; [Rana et al., 2021]) and 3-(4,5-dimethylthiazol-2-yl)-2,5-diphenyl-2H-tetrazolium bromide (MTT) assay for the colon cancer (HCT116) cell lines ([El-Huneidi et al., 2020]). The CellTiter-Blue® cell viability assay was performed on the various leukemia cell lines, HL60, NB4, and KG1a cells ([Akter et al., 2019]). The IC50 values are illustrated in Table 1.
MCF7 (breast), PC3 (prostate), and HCT116 (colon) cancer cell lines were obtained from ATCC, Manassas, VA, USA. Cells were grown in Roswell Park Memorial Institute-1640 (RPMI-1640) medium (Thermo Fisher Scientific, Inc., Waltham, MA, USA), supplemented with 10% heat inactivated fetal bovine serum (FBS), 50 units/mL of penicillin, and […] of streptomycin and maintained at 37°C in a humidified atmosphere containing 5% CO2. The cells were maintained as “monolayer culture” by serial subculturing.
The test compounds were evaluated for antiproliferative activity using the MTT viability assay against the HCT116 cell line. The cells were seeded in triplicate in 96-well plates at a density of 10 × 10^3 cells/mL in a total volume of 200 µL per well. 0.1% of DMSO was used as a vehicle control. Each well was treated with 2 µL of test compound, which had been preprepared as stock solutions in ethanol to furnish the concentration range of the study, 0.1–50 μM, and re-incubated for a further 72 h at 37°C in a humidified atmosphere containing 5% CO2. The culture medium was then removed, and the cells were washed with 100 µL of PBS, and 100 µL of MTT was added, to reach a final concentration of 1 mg/ml of MTT. The cells were incubated for 3 h in darkness at 37°C. After removal of MTT solution, solubilization was initiated through the addition of […] of DMSO, and the cells were maintained at room temperature in darkness for 20 min to ensure thorough color diffusion before reading the absorbance with a microplate reader at 570 nm. The results were expressed as percentage viability relative to vehicle control (100%). The dose–response curves were plotted, and the IC50 values (concentration of drug resulting in 50% reduction in cell survival) were obtained using the commercial software package Prism (GraphPad® Software, Inc., La Jolla, CA, USA). All the experiments were repeated in at least three independent experiments.

HL60 cells = experiment: Apoptosis detection by caspase-3 activity; format: cell-based, human; settings: HL60, 1 μM, 48 h
Text: The activated caspase-3 is a marker for cell apoptosis that proteolytically cleaves and activates other caspases and intracellular targets ([Patel et al., 1996]). Caspase-3, which is activated during the early stages of apoptosis, could be measured in HL60 cells undergoing apoptosis by using fluorescein isothiocyanate (FITC)–conjugated active caspase-3 antibody.
FITC conjugated active caspase-3 antibody (BD biosciences, USA) was used to detect the active form of caspase-3 in the cells undergoing apoptosis. Cells were plated in a 6-well culture plate at a density of 0.5 × 10^6 cells and harvested after 24 and 48 h of incubation with the test compound. The collected cells were washed twice with cold 1X PBS and then resuspended in 0.5 ml of BD Cytofix/Cytoperm solution followed by a 20-min incubation on ice. After incubation, the cells were washed twice in a BD Perm/Wash buffer (1X) and were labelled with 5 µL of FITC rabbit anti-caspase-3 antibodies. The labelled cells were washed again with wash buffer and resuspended in 0.5 ml of buffer and analyzed by acquiring a minimum of 5,000 events on the FACSAria III cell analyzer and sorter.

bovine brain tubulin = experiment: Tubulin polymerization assay (cell-free); format: biochemical; settings: 10 and 30 µM, compared with KX2-391 (10 µM)
Procedure: KX2-391 (KX-01), the prototype of KIM-161, is a known powerful tubulin polymerization inhibitor. Consequently, we investigated its effect on tubulin polymerization using a cell-free assay that also included paclitaxel as another positive reference that affects tubulin function through stabilization of tubulin polymers (Figure 9).
FIGURE 9 Tubulin polymerization assay for KIM-161 at 10 and 30 µM compared to paclitaxel (10 µM) and KX2-391 (10 µM) as positive controls. The negative control (vehicle) contained DMSO (1% v/v). The effect on the tubulin assembly was monitored turbidometrically at 340 nm every 30 s for 60 min at 37°C. Fold inhibition of tubulin polymerization was calculated using the V max value for each reaction. The results represent the mean for three separate experiments.
The assembly of purified bovine tubulin was monitored using a kit BK006 purchased from Cytoskeleton Inc. (Denver, CO, USA). The assay was carried out in accordance with the manufacturer's instructions in the tubulin polymerization assay kit manual using the standard assay conditions. The values reported represent the average values from two independent assays. […] Therefore, tubulin assembly was monitored turbidimetrically at 340 nm at 37°C in a Spectramax 340 PC spectrophotometer (Molecular Devices, Sunnyvale, CA, USA). The absorbance was measured at 30-s intervals for 60 min.

With COc1ccc(/C=C2\N=C(C)N(c3ccc(CC(=O)NCc4ccccc4)cc3)C2=O)cc1 [Compound 4c, (Z)-N-Benzyl-2-(4-(4-(4-methoxybenzylidene)-2-methyl-5-oxo-4,5-dihydro-1H-imidazol-1-yl)phenyl)acetamide] the IC50 ([1]; HCT116, MTT, 72 h, read-out: IC50 ± SEM HCT116) was 294 nM, the IC50 ([1]; HCT116 colon cancer, abstract, read-out: cytotoxic IC50 HCT116) was 294 nM and the “Casp3 active %P” value (HL60 cells) was 49.94%. The “increase in the cells undergoing apoptosis (active caspase-3) vs untreated” value (HL60 cells) was roughly 10 fold and the tubulin polymerization inhibition (bovine brain tubulin) was “much weaker tubulin polymerization inhibition than KX2-391”.
